Results as given in patent US11116725B2, “Nanoparticles carrying antibiotics” (UNIVERSITY OF SOUTH FLORIDA, priority 2017, dated 2021).
Values after ≈ are worked out from the molar mass of the structure shown.

Tests used:
Escherichia coli (K12) = assay: 96-well plate broth assay, minimum inhibitory concentration (MIC); assay type: cell-based; conditions: triplicate, 37° C., 16-20 hours, concentration as N-acryloylciprofloxacin, read-out: MIC vs E. coli (K12)
Experimental: (§1) Each assay was done in triplicate.
(§2) The original stock emulsion was diluted using the Trypticase Soy Broth solution to an initial concentration of 1.28 mg/ml of the N-acryloylciprofloxacin, then serial diluted with TSB to half the concentration each time. A volume of 10 μl of each emulsion dilution was added to a well in series, resulting in a final concentration run of 64 μg/ml to 0.012 μg/ml. The MIC was done in triplicates for each bacterium, with ciprofloxacin hydrochloride being used as a positive control and a blank of broth medium was used as a negative control.
(§3) Bacteria were grown overnight at 37° C. on an agar plate composed of BBL TSA II Trypticase Soy Agar (TSA) and BBL Trypticase Soy Broth (TSB) in a 1:2 ratio at 4.4% concentration. A broth solution of 2.4% TSB was inoculated using the bacteria from the agar plates, and incubated at 37° C. to reach a 0.5 McFarland standard. The bacteria were then further diluted by a factor of 1000 using a broth solution of 2.4% TSB, and 190 μl of the diluted bacterial solution was transferred by micropipette into each well.

[1] = tested on: Staphylococcus aureus (ATCC 25923); assay: as above; assay type: cell-based; conditions: ATCC25923, triplicate, 37° C., 16-20 hours, concentration as N-acryloylciprofloxacin, read-out: MIC vs S. aureus (ATCC 25923)
Experimental: as §1, §2, §3

[2] = Solubility in organic solvents; assay type: physicochemical
Experimental: This method was attempted using methanol, ethanol, ethyl acetate, and dichloromethane. […] However, there was a critical issue that resulted with the polymerization procedure. Typically, organics were stirred at 75° C., then the surfactant and water were added. This would cause the dichloromethane to rapidly evaporate.

MIC (Escherichia coli (K12)) [µg/mL]	MIC [1] [µg/mL]	SMILES	solubility in dichloromethane [2]
0.012 (≈ 0.0362 µM)	0.5 (≈ 1.51 µM)	O=C(O)c1cn(C2CC2)c2cc(N3CCNCC3)c(F)cc2c1=O [Control Ciprofloxacin, ciprofloxacin]	–
–	–	C=CC(=O)N1CCN(c2cc3c(cc2F)c(=O)c(C(=O)O)cn3C2CC2)CC1 [N-acryloylciprofloxacin]	Up to 500 mg/ml
